pIC50: −log10 of the molar value. Like-named read-outs stand apart in the source and are kept apart here.

Assay [1] concerns the target IRAK1 (His-TEV-IRAK1 (194-712)) (Homo sapiens (Human), UniProt P51617). Description: IRAK1 enzymatic assay. In kind it is biochemical. In outline: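 Recombinant His-TEV-IRAK1 (194-712), 15 ng/well, autophosphorylation with 1 μM ATP plus [33P]ATP, 3 h at 30° C in Hepes pH 7.0 buffer with MgCl2, DTT, EGTA, BSA and Triton; compounds from 20 µM to 1 nM. The reaction was stopped with EDTA, and radioactivity was counted in streptavidin FlashPlates.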

For the next assay, the target named is IRAK4 (Homo sapiens (Human), UniProt Q9NWZ3). The assay can be described thus: IRAK4 enzymatic assay. In kind it is biochemical. In a few lines: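 Recombinant His-TEV-IRAK4 (20 ng/well) phosphorylating biotinylated STK1 peptide (300 nM) with 2 μM ATP plus [^33P]ATP, 3 h at 30° C in pH 7.0 Hepes buffer with Mg2+ and Mn2+. Compounds 20 µM to 1 nM; EDTA stop, radioactivity captured on streptavidin FlashPlates.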
IRAK4, sequence (Q9NWZ3 whole entry): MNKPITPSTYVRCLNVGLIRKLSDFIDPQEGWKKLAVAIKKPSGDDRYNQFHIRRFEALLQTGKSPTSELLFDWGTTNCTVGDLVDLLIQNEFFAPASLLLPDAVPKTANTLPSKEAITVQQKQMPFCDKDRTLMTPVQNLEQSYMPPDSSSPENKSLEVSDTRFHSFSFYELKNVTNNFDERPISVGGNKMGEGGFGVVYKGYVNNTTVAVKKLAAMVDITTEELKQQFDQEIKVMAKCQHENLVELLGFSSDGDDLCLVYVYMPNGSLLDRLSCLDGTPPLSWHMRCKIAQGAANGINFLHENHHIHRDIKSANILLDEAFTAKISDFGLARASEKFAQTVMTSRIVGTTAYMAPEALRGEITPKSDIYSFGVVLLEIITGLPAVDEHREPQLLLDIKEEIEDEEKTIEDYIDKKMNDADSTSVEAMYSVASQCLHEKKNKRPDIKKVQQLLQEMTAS

In assay [2] the test system is TLR7 induced IL-6 secretion in human mononuclear cells (PBMC's). The assay can be described thus: TLR7 induced IL-6 in human PBMC's. In kind it is cell-based. Conditions: read-out: TLR7 induced IL-6 secretion in hPBMC's (IC50). In a few lines: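 Fresh or frozen healthy-donor PBMCs preincubated 30 min at 37° C. with compound (25 uM to 0.4 nM; vehicle 0.25% DMSO) in RPMI/10% HI-FBS. Stimulated with TLR7 ligand (2 uM) for 16-18 h at 37° C.; supernatant IL-6 measured by AlphaLISA.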

IRAK1 (His-TEV-IRAK1 (194-712)), sequence (P51617 194-712): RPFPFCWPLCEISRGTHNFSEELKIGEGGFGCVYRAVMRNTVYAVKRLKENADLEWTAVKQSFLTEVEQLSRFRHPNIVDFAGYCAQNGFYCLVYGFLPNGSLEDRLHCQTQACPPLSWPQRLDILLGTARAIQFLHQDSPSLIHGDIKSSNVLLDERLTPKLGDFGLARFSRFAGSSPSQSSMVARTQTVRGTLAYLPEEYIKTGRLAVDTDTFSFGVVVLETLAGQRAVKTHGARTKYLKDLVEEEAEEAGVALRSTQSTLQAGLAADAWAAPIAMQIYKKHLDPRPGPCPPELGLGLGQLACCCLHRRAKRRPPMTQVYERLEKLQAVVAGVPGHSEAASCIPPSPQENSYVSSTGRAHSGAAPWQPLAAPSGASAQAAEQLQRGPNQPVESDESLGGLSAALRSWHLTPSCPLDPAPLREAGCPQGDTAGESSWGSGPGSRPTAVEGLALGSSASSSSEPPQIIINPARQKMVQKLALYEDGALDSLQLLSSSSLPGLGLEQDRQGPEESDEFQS

As usually defined, the pIC50 is the IC50 on a negative log10 scale, so that one unit is a factor of ten. Turning to `Cn1cc(-c2cccc(-c3ncc(-c4cnn(C)c4)c(N[C@H]4CC[C@@H](O)CC4)n3)c2)cn1` [Example 221], the negative logarithm of the IC50 (pIC50) in assay [1] was 6.00 to 7.00; against IRAK4 it was over 7.00; in assay [2] (Homo sapiens, PBMC) it was 6.00 to 7.00.

Regarding `Cn1cc(-c2cccc(-c3ncc(-c4cnn(C)c4)c(NC[C@H]4CCCC[C@H]4O)n3)c2)cn1` [Example 225], the negative-log IC50 (pIC50) in assay [1] was 6.00 to 7.00; against IRAK4, over 7.00; in assay [2] (Homo sapiens, PBMC), 6.00 to 7.00.

As for `Cn1cc(-c2cccc(-c3ncc(-c4cnn(C)c4)c(N[C@H]4CC[C@@H](N5CCOCC5)CC4)n3)c2)cn1` [Example 233], the pIC50 in assay [1] is 6.00 to 7.00; against IRAK4, over 7.00; in assay [2] (Homo sapiens, PBMC), 6.00 to 7.00.

For the compound `Cn1cc(-c2cccc(-c3ncc(-c4cnn(C)c4)c(NC4CCCC4O)n3)c2)cn1` (stereo not drawn) [Example 238], the pIC50 in assay [1] was 6.00 to 7.00; at IRAK4, over 7.00; in assay [2] (Homo sapiens, PBMC), 6.00 to 7.00.

Turning to `Cn1cc(-c2cccc(-c3ncc(-c4cnn(C)c4)c(N4CCC(N)CC4)n3)c2)cn1` [Example 239], the pIC50 in assay [1] is 6.00 to 7.00; against IRAK4, 6.00 to 7.00; in assay [2] (Homo sapiens, PBMC), 6.00 to 7.00.

Turning to `Cn1cc(-c2cccc(-c3ncc(-c4cnn(C)c4)c(NC45CC(CN)(C4)C5)n3)c2)cn1` [Example 242], the pIC50 was 6.00 to 7.00 in assay [1]; over 7.00 at IRAK4; 6.00 to 7.00 in assay [2] (Homo sapiens, PBMC).

On to `Cc1nnc(-c2cnc(-c3cccc(-c4cnn(C)c4)c3)nc2NC2CCS(=O)(=O)CC2)s1` [Example 243], for which the pIC50 in assay [1] was 5.30 to 6.00; against IRAK4, over 7.00; in assay [2] (Homo sapiens, PBMC) it was 6.00 to 7.00.

Regarding `Cn1cc(-c2cccc(-c3ncc(-c4cnn(C)c4)c(NC4CCCCC4O)n3)c2)cn1` (stereo not drawn) [Example 244], the pIC50 in assay [1] is 6.00 to 7.00; on IRAK4 it was over 7.00; in assay [2] (Homo sapiens, PBMC), 6.00 to 7.00.

As to `Cn1cc(-c2cccc(-c3ncc(-c4cnn(C)c4)c(NC45CC(CNS(C)(=O)=O)(C4)C5)n3)c2)cn1` [Example 245], the negative-log IC50 (pIC50) was over 7.00 in assay [1]; over 7.00 on IRAK4; 6.00 to 7.00 in assay [2] (Homo sapiens, PBMC).

In the case of `Cc1nnc(-c2cnc(-c3cccc(-c4cnn(C)c4)c3)nc2NC2CCCN(S(C)(=O)=O)CC2)s1` (stereo not drawn) [Example 253], the pIC50 in assay [1] was over 7.00; at IRAK4, over 7.00; in assay [2] (Homo sapiens, PBMC), 6.00 to 7.00.

Regarding `Cc1nnc(-c2cnc(-c3cccc(-c4cnn(C)c4)c3)nc2N[C@H]2CC[C@H](NS(C)(=O)=O)CC2)s1` [Example 254], the pIC50 was over 7.00 in assay [1]; over 7.00 against IRAK4; over 7.00 in assay [2] (Homo sapiens, PBMC).

With `CC(=O)NC1(CNc2nc(-c3cccc(-c4cnn(C)c4)c3)ncc2-c2cnn(C)c2)CCCCC1` [Example 256], the pIC50 in assay [1] was 5.30 to 6.00; against IRAK4 it was over 7.00; in assay [2] (Homo sapiens, PBMC) it was 5.30 to 6.00.

Consider `Cn1cc(-c2cccc(-c3ncc(-c4cnn(C)c4)c(NC4CCS(=O)(=O)CC4)n3)c2)cn1` [Example 257], for which the pIC50 in assay [1] is 6.00 to 7.00; against IRAK4, over 7.00; in assay [2] (Homo sapiens, PBMC), 5.30 to 6.00.

Regarding `CC(C)Nc1nc(-c2cccc(-c3cnn(C)c3)c2)ncc1-c1cnn(C)c1` [Example 260], the negative-log IC50 (pIC50) is 6.00 to 7.00 in assay [1]; 6.00 to 7.00 on IRAK4; 5.30 to 6.00 in assay [2] (Homo sapiens, PBMC).

For the compound `Cn1cc(-c2cccc(-c3ncc(-c4cnn(C)c4)c(NCC4(NS(C)(=O)=O)CCCCC4)n3)c2)cn1` [Example 262], the pIC50 was 6.00 to 7.00 in assay [1]; over 7.00 on IRAK4; 5.30 to 6.00 in assay [2] (Homo sapiens, PBMC).

Consider `Cn1cc(-c2cccc(-c3ncc(-c4cnn(C)c4)c(N4CCC(CNS(C)(=O)=O)C4)n3)c2)cn1` (stereo not drawn) [Example 265], for which the pIC50 was 6.00 to 7.00 in assay [1]; over 7.00 against IRAK4; under 5.30 in assay [2] (Homo sapiens, PBMC).

As for `CC(=O)NC12CC(Nc3nc(-c4cccc(-c5cnn(C)c5)c4)ncc3-c3cnn(C)c3)(C1)C2` [Example 266], the pIC50 in assay [1] is over 7.00; against IRAK4, over 7.00; in assay [2] (Homo sapiens, PBMC), 6.00 to 7.00.

Take `Cn1cc(-c2cccc(-c3ncc(-c4cnn(C)c4)c(NCCNS(C)(=O)=O)n3)c2)cn1` [Example 267]: the pIC50 in assay [1] was 6.00 to 7.00; against IRAK4, over 7.00; in assay [2] (Homo sapiens, PBMC), 6.00 to 7.00.

For `Cn1cc(-c2cccc(-c3ncc(-c4cnn(C)c4)c(N[C@H]4CCC[C@@H](O)[C@H]4O)n3)c2)cn1` [Example 268], the pIC50 in assay [1] is over 7.00; on IRAK4, over 7.00; in assay [2] (Homo sapiens, PBMC), over 7.00.

Regarding `Cn1cc(-c2cccc(-c3ncc(-c4cnn(C)c4)c(NC45CC(N)(C4)C5)n3)c2)cn1` [Example 269], the negative-log IC50 (pIC50) in assay [1] is 6.00 to 7.00; at IRAK4, over 7.00; in assay [2] (Homo sapiens, PBMC) it was 6.00 to 7.00.

Turning to `Cn1cc(-c2cccc(-c3ncc(-c4cnn(C)c4)c(NC45CC(NS(C)(=O)=O)(C4)C5)n3)c2)cn1` [Example 270], the pIC50 was over 7.00 in assay [1]; over 7.00 against IRAK4; over 7.00 in assay [2] (Homo sapiens, PBMC).

As for `Cn1cc(-c2cccc(-c3ncc(-c4cnn(C)c4)c(NCC(F)(F)F)n3)c2)cn1` [Example 271], the negative-log IC50 (pIC50) in assay [1] is 6.00 to 7.00; at IRAK4 it was over 7.00; in assay [2] (Homo sapiens, PBMC) it was 5.30 to 6.00.

`Cn1cc(-c2cccc(-c3ncc(-c4cnn(C)c4)c(NCC(F)(F)C(F)(F)C(F)(F)F)n3)c2)cn1` [Example 272]: the negative-log IC50 (pIC50) in assay [1] is 6.00 to 7.00; at IRAK4, over 7.00; in assay [2], 5.30 to 6.00.

For `Cn1cc(-c2cccc(-c3ncc(-c4cnn(C)c4)c(N[C@H]4CC[C@H](O)[C@@H]4O)n3)c2)cn1` [Example 273], the pIC50 in assay [1] is 6.00 to 7.00; against IRAK4, over 7.00; in assay [2] (Homo sapiens, PBMC) it was 6.00 to 7.00.

With `Cn1cc(-c2cccc(-c3ncc(-c4cnn(C)c4)c(NCC(O)C(F)(F)F)n3)c2)cn1` (stereo not drawn) [Example 275], the negative-log IC50 (pIC50) was 6.00 to 7.00 in assay [1]; over 7.00 against IRAK4; 6.00 to 7.00 in assay [2] (Homo sapiens, PBMC).

On to `Cn1cc(-c2cccc(-c3ncc(-c4cnn(C)c4)c(N[C@H]4CC[C@H](NS(=O)(=O)C5CC5)CC4)n3)c2)cn1` [Example 276], for which the pIC50 was over 7.00 in assay [1]; over 7.00 against IRAK4; 6.00 to 7.00 in assay [2] (Homo sapiens, PBMC).

On to `Cn1cc(-c2cccc(-c3ncc(-c4cnn(C)c4)c(NCCS(N)(=O)=O)n3)c2)cn1` [Example 278], for which the pIC50 in assay [1] is over 7.00; at IRAK4, over 7.00; in assay [2] (Homo sapiens, PBMC), 6.00 to 7.00.

Turning to `Cn1cc(-c2cccc(-c3ncc(-c4cnn(C)c4)c(N[C@H]4CC[C@H](C(=O)O)CC4)n3)c2)cn1` [Example 279], the negative logarithm of the IC50 (pIC50) was under 5.30 in assay [1]; 6.00 to 7.00 at IRAK4; under 5.30 in assay [2] (Homo sapiens, PBMC).

With `Cn1cc(-c2cccc(-c3ncc(-c4cnn(C)c4)c(N4CC[C@H](F)[C@@H](O)C4)n3)c2)cn1` [Example 280], the negative logarithm of the IC50 (pIC50) is 6.00 to 7.00 in assay [1]; over 7.00 on IRAK4; 5.30 to 6.00 in assay [2] (Homo sapiens, PBMC).

On to `Cn1cc(-c2cccc(-c3ncc(-c4cnn(C)c4)c(NCCCS(C)(=N)=O)n3)c2)cn1` (stereo not drawn) [Example 282], for which the negative-log IC50 (pIC50) was 5.30 to 6.00 in assay [1]; 6.00 to 7.00 at IRAK4; under 5.30 in assay [2] (Homo sapiens, PBMC).

For `Cn1cc(-c2cccc(-c3ncc(-c4cnn(C)c4)c(N4C[C@H](N)CC(F)(F)C4)n3)c2)cn1` [Example 283, (R)-5,5-Difluoro-1-{5-(1-methyl-1H-pyrazol-4-yl)-2-[3-(1-methyl-1H-pyrazol-4-yl)-phenyl]-pyrimidin-4-yl}-piperidin-3-ylamine], the pIC50 in assay [1] was 5.30 to 6.00; against IRAK4, 5.30 to 6.00; in assay [2] (Homo sapiens, PBMC), 5.30 to 6.00.

Turning to `Cn1cc(-c2cccc(-c3ncc(-c4cnn(C)c4)c(N4C[C@@H](N)CC(F)(F)C4)n3)c2)cn1` [Example 284, (S)-5,5-Difluoro-1-{5-(1-methyl-1H-pyrazol-4-yl)-2-[3-(1-methyl-1H-pyrazol-4-yl)-phenyl]-pyrimidin-4-yl}-piperidin-3-ylamine], the negative logarithm of the IC50 (pIC50) was 5.30 to 6.00 in assay [1]; over 7.00 at IRAK4; 6.00 to 7.00 in assay [2] (Homo sapiens, PBMC).

With `Cn1cc(-c2cccc(-c3ncc(-c4cnn(C)c4)c(N[C@@H]4CCCC(F)(F)[C@H]4O)n3)c2)cn1` [Example 287, (1S,6R)-2,2-Difluoro-6-{5-(1-methyl-1H-pyrazol-4-yl)-2-[3-(1-methyl-1H-pyrazol-4-yl)-phenyl]-pyrimidin-4-ylamino}-cyclohexanol], the pIC50 was 6.00 to 7.00 in assay [1]; over 7.00 on IRAK4; 5.30 to 6.00 in assay [2] (Homo sapiens, PBMC).

As to `Cn1cc(-c2cccc(-c3ncc(-c4cnn(C)c4)c(N[C@H]4CCCC[C@@H](O)[C@H]4O)n3)c2)cn1` [Example 288, (1R,2S,3S)-3-{5-(1-Methyl-1H-pyrazol-4-yl)-2-[3-(1-methyl-1H-pyrazol-4-yl)-phenyl]-pyrimidin-4-ylamino}-cycloheptane-1,2-diol], the pIC50 (in assay [1]; against IRAK4; in assay [2]) was over 7.00 throughout.

For `Cn1cc(-c2cccc(-c3ncc(-c4cnn(C)c4)c(N[C@@H]4CCCC[C@H](O)[C@@H]4O)n3)c2)cn1` [Example 289, (1S,2R,3R)-3-{5-(1-Methyl-1H-pyrazol-4-yl)-2-[3-(1-methyl-1H-pyrazol-4-yl)-phenyl]-pyrimidin-4-ylamino}-cycloheptane-1,2-diol], the pIC50 is under 5.30 in assay [1]; over 7.00 against IRAK4; 6.00 to 7.00 in assay [2] (Homo sapiens, PBMC).
